Data reported in patent US20210317112A1, “HETEROCYCLIC COMPOUNDS AS PESTICIDES” (Bayer Aktiengesellschaft, priority 2017, published 2021).
Read-outs that look alike come from different tables or passages of the source.

Tests used:
Assay type in all cases: in vivo
[1] = tested on: mustard beetle larvae (Phaedon cochleariae); assay: Phaedon cochleariae spray test; details: in Brassica rapa, foliar, 168 h, read-out: mortality in %
Method: Phaedon cochleariae—Spray Test Solvent: 78.0 parts by weight of acetone • • 1.5 parts by weight of dimethylformamide Emulsifier: alkylarylpolyglycol ether
(§1) To produce a suitable preparation of active compound, 1 part by weight of active compound is mixed with the stated amount of solvents and is diluted with water, containing an emulsifier concentration of 1000 ppm, to the desired concentration. Further test concentrations are prepared by dilution with emulsifier containing water.
Chinese cabbage (Brassica pekinensis) leaf disks are sprayed with a preparation of the active ingredient of the desired concentration. Once dry, the leaf disks are infested with mustard beetle larvae (Phaedon cochleariae).
After 7 days mortality in % is determined. 100% means all beetle larvae have been killed and 0% means none of the beetle larvae have been killed.

[2] = tested on: two spotted spidermite (Tetranychus urticae); assay: whole plant or invertebrate; details: in Phaseolus vulgaris, foliar, 144 h, read-out: mortality in %
Method: Tetranychus urticae—Spray Test OP-Resistant Solvent: 78.0 parts by weight acetone • 1.5 parts by weight dimethylformamide Emulsifier: alkylarylpolyglycol ether
as §1
French bean (Phaseolus vulgaris) leaf disks infected with all instars of the two spotted spidermite (Tetranychus urticae), are sprayed with a preparation of the active ingredient of the desired concentration.
After 6 days mortality in % is determined. 100% means all spider mites have been killed and 0% means none of the spider mites have been killed.

[3] = tested on: southern green stink bug (Nezara viridula); assay: whole plant or invertebrate; details: in Hordeum vulgare, 96 h, read-out: mortality in %
Method: Nezara viridula—Spray Test Solvent: 52.5 parts by weight of acetone • 7 parts by weight of dimethylformamide Emulsifier: alkylaryl polyglycolether
(§2) To produce a suitable preparation of active compound, 1 part by weight of active compound is mixed with the stated amount of solvent, and the concentrate is diluted with water, containing an emulsifier concentration of 1000 ppm, to the desired concentration. Ammonium salt and/or penetration enhancer in a dosage of 1000 ppm are added to the desired concentration if necessary.
(§3) Barley plants (Hordeum vulgare) infested with larvae of the southern green stink bug (Nezara viridula) are sprayed with a test solution containing the desired concentration of the active ingredient.
(§4) After 4 days mortality in % is determined. 100% means all the stink bugs have been killed; 0% means none of the stink bugs have been killed.

[4] = tested on: brown planthopper (Nilaparvata lugens); assay: Nilaparvata lugens spray test (solvent 52.5 acetone / 7 DMF); details: 96 h, application rate 500 g/ha, rice plants, after 4 days
Method: Nilaparvata lugens—Spray Test Solvent: 52.5 parts by weight of acetone • 7 parts by weight of dimethylformamide Emulsifier: alkylaryl polyglycolether
as §2, with “solvents” for “solvent,”, “and” for “and the concentrate”, “concentration. Further test concentrations are prepared by dilution with emulsifier containing water.” for “concentration.”
Rice plants (Oryza sativa) are treated by being sprayed with the desired concentration of the active compound and are infested with larvae of the brown planthopper (Nilaparvata lugens).
(§5) After 4 days mortality in % is determined. 100% means all planthoppers have been killed and 0% means none of the planthoppers have been killed.

[5] = tested on: southern green stink bug (Nezara viridula); assay: whole plant or invertebrate; details: in Hordeum vulgare, 96 h, read-out: mortality in %; remark: listed apart in the source
Method: Nezara viridula—Spray Test Solvent: 78.0 parts by weight of acetone • • 1.5 parts by weight of dimethylformamide Emulsifier: alkylarylpolyglycol ether
as §1, with “solvent,” for “solvents”, “and the concentrate” for “and”
as §3, §4

[6] = tested on: brown planthopper (Nilaparvata lugens); assay: Nilaparvata lugens spray test (solvent 78.0 acetone / 1.5 DMF); details: 96 h, application rate 500 g/ha, rice plants, after 4 days
Method: Nilaparvata lugens—Spray Test Solvent: 78.0 parts by weight of acetone • • 1.5 parts by weight of dimethylformamide Emulsifier: alkylarylpolyglycol ether
as §1
Rice plants (Oryza sativa) are sprayed with a preparation of the active ingredient of the desired concentration and the plants are infested with the brown planthopper (Nilaparvata lugens).
as §5

[7] = tested on: green peach aphid (Myzus persicae); assay: whole plant or invertebrate; details: po, 120 h, read-out: mortality in %
Method: Myzus persicae—Oral Test Solvent: 100 parts by weight acetone
To produce a suitable preparation of active compound, 1 part by weight of active compound is mixed with the stated amount of solvent, and the concentrate is diluted with water to the desired concentration. 50 μl compound solution is filled in microtiter plates and 150 μl IPL41 insect medium (33%+15% sugar) is added to obtain a total volume of 200 μper well. Afterwards the plates are sealed with parafilm through which a mixed population of the green peach aphid (Myzus persicae) can suck on the compound preparation.
(§6) After 5 days mortality in % is determined. 100% means all aphids have been killed and 0% means none of the aphids have been killed.

[8] = tested on: green peach aphid (Myzus persicae); assay: Myzus persicae spray test; details: in Brassica rapa, foliar, 120 h, read-out: mortality in %
Method: Myzus persicae—spray test Solvent: 78.0 parts by weight acetone • 1.5 parts by weight dimethylformamide Emulsifier: alkylarylpolyglycol ether
as §1
Chinese cabbage (Brassica pekinensis) leaf disks infected with all instars of the green peach aphid (Myzus persicae), are sprayed with a preparation of the active ingredient of the desired concentration.
as §6

Work on `O=C(Nc1nc(-c2c(F)cccc2F)no1)c1cccnc1C(F)(F)F` [Compound I-1-1, N-[3-(2,6-Difluorophenyl)-1,2,4-oxadiazol-5-yl]-2-(trifluoromethyl)nicotinamide] yielded a mortality at 100 g/ha [1] of 100%, a mortality at 500 g/ha [1] of 100% and a mortality at 500 g/ha [2] of 70%. The mortality at 100 g/ha [3] was 100%, the mortality at 500 g/ha [3] was 100% and the mortality at 500 g/ha [4] was 80%.

For `O=C(Nc1nc(-c2ccccc2C(F)(F)F)no1)c1cccnc1C(F)(F)F` [Compound I-1-8, 2-(trifluoromethyl)-N-{3-[2-(trifluoromethyl)phenyl]-1,2,4-oxadiazol-5-yl}nicotinamide], the mortality at 500 g/ha [5] was 90%, the mortality at 500 g/ha [6] was 100% and the mortality at 500 g/ha [1] was 100%. For the same compound, the mortality at 100 g/ha [2] was 100% and the mortality at 500 g/ha [2] was 100%.

With `O=C(Nc1nc(-c2c(F)ccc(Br)c2F)no1)c1cccnc1C(F)(F)F` [Compound I-1-12, N-[3-(3-bromo-2,6-difluorophenyl)-1,2,4-oxadiazol-5-yl]-2-(trifluoromethyl)nicotinamide] the mortality at 100 g/ha [1] was 100%, the mortality at 500 g/ha [1] was 83% and the mortality at 100 g/ha [2] was 100%. It also gave a mortality at 500 g/ha [2] of 100%.

For `N#Cc1c(-c2c(F)cccc2F)nsc1NC(=O)c1cccnc1C(F)(F)F` [Compound I-2-1, N-[4-Cyano-3-(2,6-difluorophenyl)-1,2-thiazol-5-yl]-2-(trifluoromethyl)nicotinamide], the mortality at 20 ppm [7] was 90%, the mortality at 500 g/ha [5] was 100% and the mortality at 500 g/ha [1] was 100%. It also gave a mortality at 100 g/ha [3] of 100% and a mortality at 500 g/ha [3] of 100%.

`N#Cc1c(-c2ccccc2Cl)nsc1NC(=O)c1cccnc1Cl` [Compound I-2-6, 2-Chloro-N-[3-(2-chlorophenyl)-4-cyano-1,2-thiazol-5-yl]nicotinamide] gave a mortality at 500 g/ha [8] of 100%, a mortality at 500 g/ha [1] of 83% and a mortality at 500 g/ha [2] of 70%. It also gave a mortality at 500 g/ha [3] of 100%.

In the case of `N#Cc1c(-c2ccccc2C(F)(F)F)nsc1NC(=O)c1cccnc1Cl` [Compound I-2-7, 2-Chloro-N-{4-cyano-3-[2-(trifluoromethyl)phenyl]-1,2-thiazol-5-yl}nicotinamide], the mortality at 500 g/ha [1] is reported as 100%, the mortality at 100 g/ha [2] is reported as 90% and the mortality at 500 g/ha [2] is reported as 90%. For the same compound, the mortality at 500 g/ha [3] was 100%.

For `N#Cc1sc(NC(=O)c2cccnc2C(F)(F)F)nc1-c1ccccc1C(F)(F)F` [Compound I-3-2, N-{5-Cyano-4-[2-(trifluoromethyl)phenyl]-1,3-thiazol-2-yl}-2-(trifluoromethyl)nicotinamide], the mortality at 100 g/ha [1] was 100%, the mortality at 500 g/ha [1] was 100% and the mortality at 100 g/ha [2] was 100%. The mortality at 500 g/ha [2] was 100%, the mortality at 100 g/ha [3] was 100% and the mortality at 500 g/ha [3] was 100%. It also gave a mortality at 500 g/ha [4] of 100%.
